Data published in paper PMC7904550, “Application of grouping and read-across for the evaluation of parabens of different chain lengths with a particular focus on endocrine properties” (Archives of Toxicology, 2021).

What was measured:
Wistar rats [1] = assay: Prenatal developmental toxicity study (OECD TG 414); assay type: in vivo, rat; details: for NOAEL, developmental toxicity: OECD 414 v 2001, oral gavage
Text: Healthy and specific pathogen-free male and female (non-pregnant and nulliparous) Wistar Crl: WI(Han) rats were obtained from Charles River Laboratories (Germany). […] Upon arrival at BSL BIOSERVICE, the animals underwent an acclimatisation period of at least 5 days, and they were approximately 15–16 weeks old at the onset of the treatment period.

Wistar rats [2] = assay: Reproductive toxicity screening study (OECD TG 421); assay type: in vivo, rat; details: for NOAEL, reproductive toxicity: OECD 421 v 2016 oral gavage (& historical OECD 422 feeding study)
Procedure: Healthy and specific pathogen-free male and female (non-pregnant and nulliparous) Wistar Crl: WI(Han) rats were obtained from Charles River Laboratories (Germany). The animals were housed in an air-conditioned room (temperature: 22 ± 3 °C; relative humidity: 55 ± 10%; artificial light, light–dark cycle: 12 h–12 h; air change: 10 times/h). Housing was in groups of 5 animals/sex/cage in individually ventilated Type IV polysulphone cages on Altromin saw fibre bedding with free access to both Altromin 1324 maintenance diet for rats and mice and tap water. Upon arrival at BSL BIOSERVICE, the animals underwent an acclimatisation period of at least 5 days, and they were approximately 15–16 weeks old at the onset of the treatment period. […]

SMILES: CCCOC(=O)c1ccc(O)cc1 [Propyl paraben, Propyl 4-hydroxybenzoate]
- NOAEL, developmental toxicity (Wistar rats [1]): NOAEL: 1000 (OECD 414; v 2001) mg/kg body weight/day
- NOAEL, developmental toxicity (Wistar rats [1]; listed as propyl paraben): 1000 mg/kg body weight/day
- Gestation length (Wistar rats [1]; OECD TG 414): n.a. / NAE
- NOAEL: No. of foetal deaths; viable foetuses (Wistar rats [1]; OECD TG 414): 1000 mg/kg bw/day
- No. of implantations, corpora lutea (Wistar rats [1]; OECD TG 414): NAE / NAE
- No. of live births (Wistar rats [1]; OECD TG 414): NAE / NAE
- Postimplantation loss (Wistar rats [1]; OECD TG 414): NAE / NAE
- Pre-implantation loss (Wistar rats [1]; OECD TG 414): NAE / NAE
- Uterus weight (with cervix) (Wistar rats [1]; OECD TG 414): NAE / NAE
- Thyroid HP (Wistar rats [1]; dams): NAE / NAE (dams)
- Thyroid stimulating hormone level (Wistar rats [1]; dams): NAE / NAE (dams)
- Thyroid weight (Wistar rats [1]; dams): NAE / NAE (dams)
- Triiodothyronine / thyroxine level (Wistar rats [1]; dams): NAE / NAE (dams)
- Anogenital distance (Wistar rats [1]; foetus): NAE / NAE
- Foetal development (Wistar rats [1]; foetus): NAE / NAE
- Litter size (Wistar rats [1]; foetus): NAE / NAE
- No. of foetal deaths; viable foetuses (Wistar rats [1]; foetus): NAE / NAE
- Presence of anomalies (external, visceral, skeletal) (Wistar rats [1]; foetus): NAE / NAE
- Treatment-related effects in dams or pups (Wistar rats [1]; implantation throughout pregnancy): No treatment-related effects
- NOAEL, reproductive toxicity (Wistar rats [2]): NOAEL: 1000 (OECD 421; v 2016 & OECD 422 [b]) mg/kg body weight/day
- NOAEL, reproductive toxicity (Wistar rats [2]; listed as propyl paraben): 1000 mg/kg body weight/day
- Treatment-related effects in parental animals or pups (Wistar rats [2]; OECD TG 421): no treatment-related effects
- Accessory sex organs HP (Wistar rats [2]; P0, F1): n. a. / NAE
- Anogenital distance (Wistar rats [2]; P0, F1): n. a. / NAE
- Coagulating gland weight (Wistar rats [2]; P0, F1): n. a. / NAE
- Dystocia (Wistar rats [2]; P0, F1): n. a. / NAE
- Epididymis HP (Wistar rats [2]; P0, F1): n. a. / NAE
- Epididymis weight (Wistar rats [2]; P0, F1): n. a. / NAE
- Fertility (Wistar rats [2]; P0, F1): n. a. / NAE
- Foetal development (Wistar rats [2]; P0, F1): n. a. / NAE
- Gestation length (Wistar rats [2]; P0, F1): n. a. / NAE
- Litter size (Wistar rats [2]; P0, F1): n. a. / NAE
- Litter viability (Wistar rats [2]; P0, F1): n. a. / NAE
- Nipple development (Wistar rats [2]; P0, F1): n. a. / NAE
- No. of implantations, corpora lutea (Wistar rats [2]; P0, F1): n. a. / NAE
- No. of live births (Wistar rats [2]; P0, F1): n. a. / NAE
- Oestrus cyclicity (Wistar rats [2]; P0, F1): n. a. / NAE
- Ovary HP (Wistar rats [2]; P0, F1): n. a. / NAE
- Postimplantation loss (Wistar rats [2]; P0, F1): n. a. / NAE
- Pre-implantation loss (Wistar rats [2]; P0, F1): n. a. / NAE
- Presence of anomalies (external, visceral, skeletal) (Wistar rats [2]; P0, F1): n. a. / NAE
- Prostate HP (Wistar rats [2]; P0, F1): n. a. / NAE
- Prostate weight (Wistar rats [2]; P0, F1): n. a. / NAE
- Reproduction (Wistar rats [2]; P0, F1): n. a. / NAE
- Seminal vesicles weight (Wistar rats [2]; P0, F1): n. a. / NAE
- Testis HP (Wistar rats [2]; P0, F1): n. a. / NAE
- Testis weight (Wistar rats [2]; P0, F1): n. a. / NAE
- Thyroid stimulating hormone level (Wistar rats [2]; P0, F1): n. a. / NAE
- Time to mating (Wistar rats [2]; P0, F1): n. a. / NAE
- Triiodothyronine / thyroxine level (Wistar rats [2]; P0, F1): n. a. / NAE
- Vaginal smears (Wistar rats [2]; P0, F1): n. a. / NAE
